The conditions of data set [1]: referenced in literature, cited from earlier work; for Kel: elimination constant.
Data set [2] in a line: Drug pharmacokinetic parameters referenced in literature. The following applies: drug clearance/Vd. It counts as in vivo. The method, then:
Do=Original dosage taken Vd=Volume of distribution of drug (referenced in literature) times the kg body weight of donor C=Plasma drug concentration Ka=Absorption constant of drug (referenced in literature) Kel=Elimination constant of drug (referenced in literature) F=Bioavailability of drug (referenced in literature) t=Elapsed time between dosage and specimen collection
Each donor's drug clearance rate is determined by multiplying the drugs clearance rate (referenced in literature) by the donor's weight (provided).
Likewise, each donor's volume of distribution (DVd) is calculated by multiplying the drug volume of distribution (Vd) (referenced in literature) by the donor's weight (provided).
[formula] • Css max=Steady state maximum concentration (ng/mL) • F=Fractional bioavailability • k=Fractional rate constant (drug clearance/Vd) • t=Dose frequency (hr) • DVd=Donor volume of distribution (reference Eq. 2)
[formula] • Do=Original dose taken (mg) • DVd=Volume of distribution of donor (mL) (reference Eq. 2) • C=Plasma drug concentration (mg/mL) • Ka=Absorption constant of drug (referenced in literature) • Kel=Elimination constant of drug (referenced in literature) • F=Fractional bioavailability of drug (referenced in literature) • t=Elapsed time between dosage and specimen collection (fir)

A short description of data set [3]: Oral fluid plasma equivalent calculation. It counts as in vivo, human. The text has this: (§1) Each donor provides simultaneous serum and oral fluid samples. The measured serum drug concentration is the LC-MS/MS response ratio of drug to internal standard determined from the individual's provided serum sample. The measured oral fluid drug concentration ratio is the LC-MS/MS response ratio of drug to internal standard determined from the individual's provided oral fluid sample. The oral fluid plasma equivalent is derived from the individual's measured oral fluid drug concentration, salivary pH, as well as various drug parameters referenced in literature.
[formula] • S=Saliva drug concentration (ng/mL) • P=Plasma drug concentration (ng/mL) • pHs=pH of saliva (to be determined at the time of collection) • pHp=pH of plasma (assumed to be 7.4) • pKa=Dissociation constant of a drug (referenced in literature) • fp=Free fraction of drug in plasma (referenced in literature) • fs=Free fraction of drug in saliva (negligible; assumed to be 1)
Once the S/P ratio for a drug is calculated using Eq. 5 or Eq. 6, oral fluid plasma equivalent is determined by […] the calculated S/P by the measured oral fluid drug concentration determined by LC/MS-MS quantitation, ultimately eliminating the necessity of directly analyzing blood samples to determine donor compliance.

The nature of data set [4]: LC-MS/MS quantitation of drug in donor oral fluid (saliva). It counts as in vivo, human. An excerpt:
With reference now to FIG. 1, an exemplary methodology 100 for collecting oral fluid will be described. First, the donor (sometimes referred to as subject, patient, person, or the like) is positioned to allow retrieval of the oral fluid sample, step 102. Next, an oral fluid collection device is placed in the donor's mouth, step 104. The collection device in one exemplary embodiment may be an absorbent swab placed under the tongue. One particularly useful collection device that has been developed is shown and described in FIG. 6. In this exemplary embodiment, the oral fluid collection device collects about 1 mL of neat oral fluid from the donor. Generally, the term about or approximately in the present application means within an acceptable tolerance, such as, for example, ±10% or the like. Volumetric collection is required for quantitative analysis when analyzed from a buffer solution. Oral fluid may be absorbed by the collection device by allowing saliva to move up the stem of a collection device via capillary action, step 106. When a sufficient amount of oral fluid is collected, the collection device provides indicia that the required collection amount has been collected, step 108. The indicia indicating the required volume is collected may be by a color change on a collection adequacy indicator or the like. Alternatively, an alpha/numeric display may be provided or an audio alert, such as a beep. Determining salivary pH is completed next or substantially at the same time as the required volume is collected, step 110. The pH of the oral fluid may be determined by a pH sensitive pigment or by other means including, for example, a sensor or the like. The pH indicia may be combined or separate from the indicia for volume and may include the same or different indicators. For example, the volume of the sample may be provided by a color strip whereas the pH may be provided by an audio. […] The pH will then be recorded or otherwise maintained for later use, step 112. In this exemplary embodiment, the donor will provide a sample by placing the collector swab under his or her tongue until the indicator changes color. The swab is then placed in 3 mL of oral fluid extraction buffer that promotes stabilization of the drug, preventing bacterial growth, and facilitates efficient extraction of the drugs and/or metabolites from the adsorbent swab, as is further explained below, step 114. Specimens may be aliquoted for analysis, and any remaining sample may be transferred to long-term storage at, for example, a storage temperature of between about −20 to about 0° C. The collected oral fluid may be referred to as a sample or a specimen interchangeably herein.
Specimens may undergo a sample preparation step in advance of providing the sample to the drug concentration analysis engine, which involves extracting the analyte(s) of interest from biological matrices. This process serves to eliminate any biological material that could potentially affect analytical results. Samples are first treated to disrupt any drug matrix interactions (protein binding, conjugation) and then adjusted to a specific pH with a buffer. Analytes are then extracted from the remaining matrix using solid phase extraction module 206, which may be comprised of cartridges that are mixed-mode cationic exchange columns. This technique uses the specific binding of ionized drug molecules to the extraction cartridge packing material resulting in strong analyte retention within the column. A series of aqueous and organic wash steps may be used to assist in removing unwanted compounds and matrix components from the sample. Target analytes are then eluted from the solid phase extraction module 206, collected, and analyzed by identification module 208 that may be, for example, a liquid chromatography tandem mass spectrometry (LC/MS-MS) device, although other analysis devices are possible. […]

Another data set relates to plasma proteins. The following applies: free fraction in plasma, referenced in literature; cited from earlier work.
A short description of data set [5]: LC-MS/MS quantitation of drug in donor serum/plasma. It counts as in vivo, human.
Excerpt: Specimens may undergo a sample preparation step in advance of providing the sample to the drug concentration analysis engine, which involves extracting the analyte(s) of interest from biological matrices. This process serves to eliminate any biological material that could potentially affect analytical results. Samples are first treated to disrupt any drug matrix interactions (protein binding, conjugation) and then adjusted to a specific pH with a buffer. Analytes are then extracted from the remaining matrix using solid phase extraction module 206, which may be comprised of cartridges that are mixed-mode cationic exchange columns. This technique uses the specific binding of ionized drug molecules to the extraction cartridge packing material resulting in strong analyte retention within the column. A series of aqueous and organic wash steps may be used to assist in removing unwanted compounds and matrix components from the sample. Target analytes are then eluted from the solid phase extraction module 206, collected, and analyzed by identification module 208 that may be, for example, a liquid chromatography tandem mass spectrometry (LC/MS-MS) device, although other analysis devices are possible.
In this exemplary embodiment, the specimens are analyzed by the identification module 208 that is a LC/MS-MS device, which allows for accurate and precise analyte identification and quantitation. This analytical technique uses a chromatographic system to separate all of the sample components into discrete peaks and sequentially identifies each compound through mass spectral identification. The chromatographic system is composed of a stationary phase of hydrophobic character (for example, octadecylsilane) and a mobile phase of varying polarity (for example, methanol, water). Specimens are injected into the chromatograph and pumped through the system by flow of the mobile phase. Separation is brought about by differential interactions with the stationary phase based on physical and chemical properties of the individual analytes. The end result is a separation of all of the sample components into discrete bands. As each component elutes from the liquid chromatograph it enters the mass spectrometer. The mass spectrometer is able to first determine an analytes specific molecular weight, called a precursor ion, and subsequently fragment the precursor ion into smaller fragments called product ions. The precursor ion and generated product ions are a specific marker of every analyte of interest. No two compounds will generate completely identical mass spectra. This allows for the identification module 208 to conclusively identify specimen components. Additionally, when specimens are analyzed alongside a series of standards of known concentration, a calibration curve can be generated and quantitative values of identified drugs can be determined.
as §1

Setting [6] is: Donor 0182, salivary pH 5.5, dose 5 mg every 6 hr, weight 68.554 kg.
The mark [7] stands for this setting: Donor 0383, salivary pH 5.8, dose 10 mg every 4 hr, weight 68.10 kg.
The mark [8] stands for this setting: Donor 0602, salivary pH 5.5, dose 5 mg every 12 hr, weight 163.44 kg.
The mark [9] stands for this setting: Donor 0442, salivary pH 5.8, dose 100 mg every 8 hr, weight 89.890 kg.
Setting [10] is: Donor 0604, salivary pH 5.5, dose 50 mg every 8 hr, weight 81.720 kg.
The mark [11] stands for this setting: Donor 0673, salivary pH 6.8, dose 50 mg every 6 hr, weight 105.782 kg.

Molecules are shown by their SMILES.

For `COc1ccc2c3c1O[C@H]1C(=O)CC[C@H]4[C@@H](C2)N(C)CC[C@]314` [Hydrocodone], the Ka in data set [1] (absorption constant) is 2.8 h⁻¹. In data set [1], the Kel was 0.141 h⁻¹, the Clearance was 8.82 mL/min/kg and the “Fractional Bioavailability” value was 0.7. The “Fractional Rate Constant; “k”” value in data set [2] was 0.132 h⁻¹. Moreover, the “Hydrocodone Oral Fluid Plasma Equivalent” value in data set [3] (Donor 0409, salivary pH 6, dose 5 mg every 6 hr, weight 67.646 kg) is recorded as 20.5 ng/mL. In addition, the “Oral Fluid Plasma Equivalent” value in data set [3] (Donor 0476, salivary pH 7.2, 5.833 hr after last dose) is reported as 4.5 ng/mL (reference Eq. 8). Moreover, the “Hydrocodone Oral Fluid Plasma Equivalent” value in data set [3] (Donor 0704, salivary pH 6.6, dose 10 mg every 12 hr, weight 147.55 kg) is given as 60.5 ng/mL. Also, the “Hydrocodone Oral Fluid Plasma Equivalent” value in data set [3] (Donor 0897, salivary pH 7, dose 10 mg every 4 hr, weight 83.99 kg) is on record as 10.1 ng/mL.

For `COc1ccc2c3c1O[C@H]1C(=O)CC[C@@]4(O)[C@@H](C2)N(C)CC[C@]314` [Oxycodone], the Kel in data set [1] is 0.174 h⁻¹. The Clearance in data set [1] was 12.4 mL/min/kg. Moreover, in data set [1], the “Fractional Bioavailability” value was 0.735. The “Measured Saliva Oxycodone Concentration” value came to 306.4 ng/mL in data set [4] (setting [6]), 230.2 ng/mL in data set [4] (setting [7]) and 978.2 ng/mL in data set [4] (setting [8]). Further, the concentration at 1.333 hr is 217 ng/mL in data set [4] (human, oral fluid (saliva), po, 1 mg, Donor 0565, salivary pH 6.4, weight 118.040 kg, 1.333 hr after last dose, read-out: Measured Oral Fluid Concentration) and 42 ng/mL in data set [3] (human, plasma (equivalent calculated from oral fluid), po, 1 mg, Donor 0565, salivary pH 6.4, 1.333 hr after last dose). Further, the “Fractional Rate Constant; “k”” value in data set [2] turned out to be 0.372 h⁻¹. The entries for the “Oxycodone Oral Fluid Plasma Equivalent” value in data set [3] (setting [6]), in data set [3] (setting [7]) and in data set [3] (setting [8]) were 7.5 ng/mL, 11.3 ng/mL and 24.1 ng/mL, respectively. Further, the “Oral Fluid Plasma Equivalent (Calculated Plasma Concentration)” value in data set [3] (Donor 0565, salivary pH 6.4, 1.333 hr after last dose) was 42.0 ng/mL (reference Eq. 8). In the data set with plasma proteins, the “Unbound Fraction (fp)” value is given as 0.55. The figures for the “Measured Plasma Oxycodone Concentration” value in data set [5] (setting [6]), in data set [5] (setting [7]) and in data set [5] (setting [8]) were 7.9 ng/mL, 8.4 ng/mL and 16.7 ng/mL, respectively. The same compound came in with a concentration at 1.383 hr in data set [5] (human, plasma, 1 mg, Donor 0565, weight 118.040 kg, 1.383 hr after last dose) of 33.7 ng/mL. The concentration at 6.05 hr in data set [5] (human, plasma, 7.5 mg, Donor 0476, weight 84.898 kg, 6.050 hr after last dose, read-out: Measured Plasma Concentration) worked out at 3.2 ng/mL.

Take `COc1cccc(C2(O)CCCCC2CN(C)C)c1` (stereo not drawn) [Tramadol]: in data set [1], the Clearance is 8 mL/min/kg. The “Fractional Bioavailability” value in data set [1] is reported as 0.725. For the same compound, the “Volume of Distribution” value in data set [1] is on record as 2.7 L/kg. For the same compound, the “Measured Saliva Tramadol Concentration” value in data set [4] (setting [9]) is 1302.5 ng/mL; in data set [4] (setting [10]) it was 29926.5 ng/mL; in data set [4] (setting [11]), 375.6 ng/mL. For the same compound, the “Fractional Rate Constant; “k”” value in data set [2] amounted to 0.178 h⁻¹. Also, the “Tramadol Oral Fluid Plasma Equivalent” value in data set [3] (setting [9]) was 41.2 ng/mL; in data set [3] (setting [10]), 475.5 ng/mL; in data set [3] (setting [11]) it was 118.7 ng/mL. Further, the “Unbound Fraction (fp)” value in the data set on plasma proteins is on record as 0.80. The “Measured Plasma Tramadol Concentration” value in data set [5] (setting [9]) turned out to be 70.4 ng/mL; in data set [5] (setting [10]), 376.6 ng/mL; in data set [5] (setting [11]), 104.1 ng/mL.
